Results: PubChem BioAssay (NCI)
Values joined by “and” are separate entries in the source; they are usually repeats but may differ in a detail not shown here. Identical values can stand only once.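 Cultured in 96-well plates, cells were exposed to test compound for 48 hours across five concentrations. At the GI50, growth is halved. TGI is the concentration that stops growth completely.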

Legend:
Assay in all cases: NCI tumour cell line growth inhibition, 48 h
HOP-92 NSCLC = test system: HOP-92 NSCLC
HCT-116 colon = test system: HCT-116 colon
HOP-62 NSCLC = test system: HOP-62 NSCLC
NCI/ADR-RES ovarian = test system: NCI/ADR-RES ovarian
MDA-MB-435 = test system: MDA-MB-435
U251 CNS = test system: U251 CNS
OVCAR-5 ovarian = test system: OVCAR-5 ovarian
EKVX NSCLC = test system: EKVX NSCLC
K-562 leukemia = test system: K-562 leukemia
HS 578T breast = test system: HS 578T breast

| Compound | GI50 (HOP-92 NSCLC) | TGI (HOP-92 NSCLC) | GI50 (HCT-116 colon) | TGI (HCT-116 colon) | GI50 (HOP-62 NSCLC) | TGI (HOP-62 NSCLC) | GI50 (NCI/ADR-RES ovarian) | TGI (NCI/ADR-RES ovarian) | GI50 (MDA-MB-435) | TGI (MDA-MB-435) | GI50 (U251 CNS) | TGI (U251 CNS) | GI50 (OVCAR-5 ovarian) | TGI (OVCAR-5 ovarian) | GI50 (EKVX NSCLC) | TGI (EKVX NSCLC) | GI50 (K-562 leukemia) | TGI (K-562 leukemia) | GI50 (HS 578T breast) | TGI (HS 578T breast) |
| --- | --- | --- | --- | --- | --- | --- | --- | --- | --- | --- | --- | --- | --- | --- | --- | --- | --- | --- | --- | --- |
| O=C(Nc1cccc(Cl)c1)Nc1ncc(CCNc2ncnc3ccsc23)s1 | 0.549 µM and 1.55 µM | 10.9 µM and > 10 µM | 1.6 µM and 2.35 µM | 16.1 µM and > 10 µM | 2.37 µM and 1.41 µM | 15.3 µM and > 10 µM | 1.34 µM and 1.6 µM | 11.8 µM and > 10 µM | 1.99 µM and 1.89 µM | 14.2 µM and > 10 µM | 4.68 µM and 2.16 µM | > 45.7 µM | 9.88 µM and > 10 µM | 25.5 µM and > 10 µM | 3.13 µM and 3.14 µM | 19 µM and > 10 µM | 3.54 µM and 2.4 µM | > 100 µM | 2.92 µM and 0.64 µM | 39.7 µM and > 10 µM |
| COc1cc2c(cc1OC)-c1ccc3cc4c(cc3c1N(CCN1CCCC1)C2)OCO4 | 1.79 µM | 12 µM | 0.477 µM | 1.76 µM | 0.376 µM | 1.93 µM | 7 µM | 53.8 µM | 1.36 µM | 6.13 µM | 0.563 µM | 1.9 µM | 1.34 µM | 4.9 µM | 0.953 µM | 7.31 µM | 0.291 µM | 1.65 µM | 1.53 µM | 14.7 µM |
| CC(C)(O)c1ccc(N2CCN(c3nnc(Cc4ccccc4)c4ccccc34)CC2)nc1 | 7.74 µM | 38.7 µM | 8.25 µM | 54.1 µM | 13.7 µM | 28.6 µM | 4.09 µM | 46.8 µM | 10 µM | 22.8 µM | 13.2 µM | 37.3 µM | 17.2 µM | 38.9 µM | 4 µM | 19.8 µM | 4.81 µM | > 72.9 µM | 15.3 µM | 41.4 µM |
| NC(=O)[C@H]1CCN(c2ncnc(N)c2F)C[C@@H]1N1CCC[C@@H](Nc2cc(Cl)cc(C(F)(F)F)c2)C1=O | 11.2 µM | 40.7 µM | 15.5 µM | 43 µM | 22 µM | > 100 µM | 29.7 µM | > 100 µM | 14.3 µM | 39.5 µM | 26.3 µM | > 100 µM | 13.5 µM | 59.3 µM | 28.7 µM | 77.1 µM | 18.4 µM | > 100 µM | 15.5 µM | > 100 µM |
| Fc1ccc2[nH]cc(Cc3c[nH]c4ccc(F)cc34)c2c1 | 15.4 µM | 34.1 µM | 17.8 µM | 43.3 µM | 19.6 µM | 40.9 µM | 17.2 µM | 90 µM | 7.46 µM | 24.9 µM | 19.7 µM | 44.8 µM | 17.5 µM | 38 µM | 17.6 µM | 41.8 µM | 32.4 µM | > 100 µM | 18.5 µM | 44.5 µM |
| N#CSc1ncnc2nc[nH]c12 | 6.91 µM | > 94 µM | 3.04 µM | > 100 µM | 2.31 µM | > 100 µM | 5.68 µM | > 100 µM | 3.65 µM | > 100 µM | 32.4 µM | > 100 µM | 17.2 µM | > 100 µM | 41.8 µM | > 100 µM | 1.24 µM | > 100 µM | 4.79 µM | > 92.6 µM |
